We go through 16 molecules from article PMC4224963 (ChemMedChem, 2014).

As usually defined, the IC50 is the concentration that gives 50% inhibition. Usually half-life stands for the time needed for the level to fall by half in the phase considered. As usually defined, the AUC is the area under the concentration-time curve, a measure of exposure. The low end stands for low exposure, the high end for high exposure. The Cmax is the peak of the concentration-time curve. For orientation: Tmax means the time at which the peak concentration occurs.

Data set [1] concerns rat-NAAA (r-NAAA). The following applies: read-out: r-NAAA IC50; ref 19a, 19c, 19d, 19f; cited from earlier work.
Data set [2] can be described thus: In vitro mouse plasma stability. Format: in vitro ADME.
Data set [3] concerns the target T1, human NAAA (Homo sapiens, UniProt Q02083).
T1 sequence (Q02083 126-359 limits assumed): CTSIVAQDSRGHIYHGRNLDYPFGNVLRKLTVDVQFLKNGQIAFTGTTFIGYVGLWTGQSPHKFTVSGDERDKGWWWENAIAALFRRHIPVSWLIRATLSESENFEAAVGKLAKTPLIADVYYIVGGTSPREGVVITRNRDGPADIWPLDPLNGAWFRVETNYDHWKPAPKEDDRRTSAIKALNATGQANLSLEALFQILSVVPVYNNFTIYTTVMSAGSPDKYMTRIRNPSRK
T1 sequence (Q02083 29-125 limits assumed): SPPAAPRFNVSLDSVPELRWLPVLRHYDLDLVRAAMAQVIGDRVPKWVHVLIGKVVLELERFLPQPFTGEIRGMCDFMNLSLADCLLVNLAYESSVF
Briefly: Fluorogenic h-NAAA assay. In kind it is biochemical.

Data set [4] is described as follows: In vitro rat plasma stability. Format: in vitro ADME.
Data set [5] deals with T2, human FAAH (Homo sapiens, UniProt O00519).
T2 sequence (O00519 1-579): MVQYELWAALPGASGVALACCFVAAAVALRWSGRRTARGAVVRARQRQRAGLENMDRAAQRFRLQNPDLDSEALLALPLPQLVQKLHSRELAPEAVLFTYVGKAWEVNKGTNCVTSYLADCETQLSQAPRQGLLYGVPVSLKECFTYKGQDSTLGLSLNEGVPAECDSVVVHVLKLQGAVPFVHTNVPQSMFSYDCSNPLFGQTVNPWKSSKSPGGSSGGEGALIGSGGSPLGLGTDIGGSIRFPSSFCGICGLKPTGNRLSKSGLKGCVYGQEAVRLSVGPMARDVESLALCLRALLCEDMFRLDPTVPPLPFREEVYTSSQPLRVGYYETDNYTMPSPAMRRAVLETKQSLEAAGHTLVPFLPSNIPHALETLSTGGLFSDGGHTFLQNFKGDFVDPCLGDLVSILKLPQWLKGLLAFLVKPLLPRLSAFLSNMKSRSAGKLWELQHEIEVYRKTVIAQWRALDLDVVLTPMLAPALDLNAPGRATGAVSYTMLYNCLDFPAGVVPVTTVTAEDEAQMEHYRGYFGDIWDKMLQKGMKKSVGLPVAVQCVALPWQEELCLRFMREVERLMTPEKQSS
Briefly: h-FAAH inhibition. In kind it is biochemical. The following applies: read-out: h–FAAH (% Inhib).

In data set [6] the target is T3, human NAAA (Homo sapiens, UniProt Q02083).
T3 sequence (Q02083 29-359): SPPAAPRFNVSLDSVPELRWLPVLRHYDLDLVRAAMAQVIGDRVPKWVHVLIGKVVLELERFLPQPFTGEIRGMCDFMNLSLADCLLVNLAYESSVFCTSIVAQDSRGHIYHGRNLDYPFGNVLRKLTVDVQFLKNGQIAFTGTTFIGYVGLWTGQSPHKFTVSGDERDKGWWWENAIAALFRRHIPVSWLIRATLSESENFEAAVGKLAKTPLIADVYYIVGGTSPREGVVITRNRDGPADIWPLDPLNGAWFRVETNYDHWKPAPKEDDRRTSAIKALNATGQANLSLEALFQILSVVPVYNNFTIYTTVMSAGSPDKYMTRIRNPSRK
Nature of the data set: h-NAAA inhibition, UPLC-MS-based assay. Format: biochemical. The following applies: for IC50: h–NAAA IC50 (μM) ± SD, LC/MS method, mean of three or more determinations.

Data set [7] concerns the target T4, human AC (Homo sapiens, UniProt Q13510).
T4 sequence (Q13510 22-395): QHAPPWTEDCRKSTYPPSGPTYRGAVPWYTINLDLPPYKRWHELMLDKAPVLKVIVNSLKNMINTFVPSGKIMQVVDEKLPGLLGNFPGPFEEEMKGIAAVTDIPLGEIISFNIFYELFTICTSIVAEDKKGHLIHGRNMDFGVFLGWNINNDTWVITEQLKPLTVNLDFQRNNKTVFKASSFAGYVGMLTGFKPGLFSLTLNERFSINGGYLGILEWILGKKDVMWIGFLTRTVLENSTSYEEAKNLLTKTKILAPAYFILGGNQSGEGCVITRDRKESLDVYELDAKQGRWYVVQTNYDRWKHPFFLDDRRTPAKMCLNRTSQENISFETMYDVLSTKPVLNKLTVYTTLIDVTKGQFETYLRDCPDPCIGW
Briefly: h-AC inhibition, UPLC-MS-based assay. In kind it is biochemical. The settings on record: for IC50: h–AC IC50 (μM) ± SD, LC/MS method, mean of three or more determinations.

A short description of data set [8]: Plasma pharmacokinetics in rats after IV or oral dosing. The following applies: rat. In kind it is in vivo.

Consider `O=C(CCc1ccccc1)N[C@H]1COC1=O` [Compound 1, (S)–N–(2–oxo–3–oxetanyl)–3–phenylpropionamide, reference compound], for which the 50% inhibitory concentration (IC50) was 420 nM in data set [1] and 1.29 µM in data set [3]. Moreover, the half-life at 2 µM in data set [2] was less than 1 min.
On to `C[C@@H]1OC(=O)[C@@H]1NC(=O)OCCCCCc1ccccc1` [Compound 2, 5–phenylpentyl N–[(2S,3R)–2–methyl–4–oxo–oxetan–3–yl]carbamate, reference compound], for which the figures for the concentration for half-maximal inhibition (IC50) in data set [1] and in data set [3] were 50 nM and 0.047 ± 0.005 µM, respectively.
`O=C(CCc1ccccc1)N[C@H]1CNC1=O` [Compound 11a, 3–Phenyl–N–[(S)–2-oxoazetidin–3–yl]–propanamide]: the half-life at 2 µM in data set [2] is greater than 120 min. In addition, the half-life at […] in data set [4] is greater than 120 min.
`O=C(CCCc1ccccc1)N[C@H]1CNC1=O` [Compound 11b, N–[(S)–2-Oxoazetidin–3–yl]–4–phenyl–butanamide] yielded an IC50 in data set [3] of 73.4 ± 10.7 µM.
On to `O=C(CCCCc1ccccc1)N[C@H]1CNC1=O` [Compound 11c, 5–Phenyl–N–[(S)–2–oxoazetidin–3–yl]–pentanamide], for which, in data set [3], the IC50 came out at 27.2 ± 1.89 µM.
`O=C(CCCCCc1ccccc1)N[C@H]1CNC1=O` [Compound 11d, N–[(S)–2–Oxoazetidin–3–yl]–6–phenyl–hexanamide] yielded an IC50 in data set [3] of 12.1 ± 2.18 µM.
`O=C(CCCCCCc1ccccc1)N[C@H]1CNC1=O` [Compound 11e, 7–Phenyl–N–[(S)–2–oxoazetidin–3–yl]–heptanamide] came in with a 50% inhibitory concentration (IC50) in data set [3] of 0.6 ± 0.17 µM.
Molecule `CCCCCCC(=O)N[C@H]1CNC1=O` [Compound 11f, N–[(S)–2–Oxoazetidin–3–yl]–heptanamide] showed an IC50 in data set [3] of 27 ± 6.15 µM. Besides, the “drop in potency (h-NAAA) compared to 11e” value in data set [3] (fluorogenic assay) is greater than 40 fold.
In turn, `CCCCCCCC(=O)N[C@H]1CNC1=O` [Compound 11g, N–[(S)–2–Oxoazetidin–3–yl]–octanamide] showed an IC50 in data set [3] of 1.91 ± 0.28 µM.
For `CCCCCCCCC(=O)N[C@H]1CNC1=O` [Compound 11h, N–[(S)–2–Oxoazetidin–3–yl]–nonanamide], the inhibition at 100 µM in data set [5] is less than 10%. In data set [2], this molecule had a half-life at 2 µM of 103 min. For the same molecule, the IC50 in data set [6] was 0.13 ± 0.03 µM. Also, the half-life at […] in data set [4] was greater than 120 min. Also, the “selectivity for NAAA vs. AC” value in data set [7] (h-AC IC50 / h-NAAA IC50, LC/MS assays) is given as “ca. 19 fold”. In data set [7], this molecule yielded an IC50 of 2.53 ± 0.06 µM. In data set [8] (iv, 3 mg/kg), the AUC is 111 ng·h/mL, the Cmax was 397 ng/mL, the Tmax stood at 4.8 min and the clearance was determined as 702 mL/min/kg. Also, in data set [8] (po, 10 mg/kg), the AUC worked out at 247 ng·h/mL and the Cmax was determined as 570 ng/mL.
`CCCCC/C=C/CC(=O)N[C@H]1CNC1=O` [Compound 11i, (E)–N–[(S)–2–Oxoazetidin–3–yl]–non–3–enamide] registered an IC50 in data set [3] of 3.09 ± 0.5 µM. The “loss/drop in potency (h-NAAA) compared to 11h” value (“loss/drop … compared to 11h” for short) in data set [3] (fluorogenic assay) is 10 fold.
`CCCCC/C=C\CC(=O)N[C@H]1CNC1=O` [Compound 11j, (Z)–N–[(S)–2–Oxoazetidin–3–yl]–non–3–enamide] displayed a 50% inhibitory concentration (IC50) in data set [3] of 3.9 ± 0.86 µM. Also, the “loss/drop … compared to 11h” value in data set [3] (fluorogenic assay) stood at 10 fold.
Consider `CCCCc1ccc(C(=O)N[C@H]2CNC2=O)cc1` [Compound 11k, 4–Butyl–N–[(S)–2–oxoazetidin–3–yl]–benzamide], for which, in data set [3], half-maximal inhibition (IC50) required 13.8 ± 3.41 µM.
As for `CCCCCCCCCCC(=O)N[C@H]1CNC1=O` [Compound 11p, N–[(S)–2–Oxoazetidin–3–yl]–undecanamide], the inhibition at 100 µM in data set [5] is less than 10%. The “increase in potency toward h–NAAA compared to 11h” value in data set [6] (LC/MS assay) is “ca. 2 fold”. Also, the IC50 in data set [6] turned out to be 0.056 ± 0.01 µM; in data set [7], 0.33 ± 0.1 µM. In data set [7] (LC/MS assay), the “increase in potency toward h–AC compared to 11h” value is on record as “ca. 7 fold”.
As to `CCCCCCCCC(=O)N[C@@H]1CNC1=O` [Compound 12h, N–[(R)–2–Oxoazetidin–3–yl]–nonanamide], in data set [5], the inhibition at 100 µM is less than 10%. Also, the IC50 in data set [6] is 45.5 µM; in data set [7], 27.8 µM; in data set [3], 74.5 ± 9.08 µM. Also, the “loss/drop … compared to 11h” value in data set [3] (fluorogenic assay) is greater than 200 fold.
With `CCCCCCCNC(=O)N[C@H]1CNC1=O` [Compound 33, 1–Heptyl–3–[(S)–2–oxoazetidin–3–yl]–urea], in data set [3], the IC50 was determined as 5.76 ± 0.9 µM.
